Experimental findings from patent US20060110456A1, “Method for biocidal and/or biostatic treatment and compositions therefor” (NATIONAL UNIVERSITY OF SINGAPORE, priority 2004, published 2006) are described below.

Assay [1] relates to biofilm bacteria (strains 4, 9, 14, 20, 27, 28). As to the kind of experiment: Effect of pharmaceuticals on adhesion of bacteria to plastic / biofilm formation on NTC and TC plates. It counts as cell-based, marine bacteria isolated from Singapore fouling communities. The settings on record: for Effect on formation of bacterial biofilms on NTC and TC plates: 25 ug ml−1, NTC = untreated polystyrene, TC = tissue-culture treated, strains 4, 9, 14, 20, 27, 28; for Prevention of formation of biofilm: crude rank, best (1) to worst (8). The procedure:
Commercial forms of pharmaceuticals were used as previously described. […] These samples were sonicated for at least 1 min and these fine suspensions were used as initial stock solutions.
For studies of bacterial adhesion, the pharmaceuticals were first sterilized by soaking in absolute alcohol (Merck) for half an hour. Ethanol was removed by air-drying with air passed through 0.25 μm pore size syringe filter (Sartorius, Germany). Stock solutions were concentrations of 100 μg ml−1 in SDI.
The effect of pharmaceuticals on bacterial adhesion was analyzed using a modified microplate method adapted from Shea and Williamson (1990). This method employs a combination of staining attached bacteria with crystal violet, releasing the stain with sodium desoxycholate, and measuring the resulting absorbance of the crystal violet.
Detailed results for six selected strains are presented here: strains 4, 9, 14, 20, 27, 28. The bacterial strains were grown in Marine Broth (Pronadisa, Spain) overnight, in the dark, at 28° C. on a rotary shaker (150 rpm) in 5 ml centrifuge tubes (Falcon). Cells were harvested by centrifugation (1500×g, 10 min) and resuspended in sterile seawater (SSW). SSW was prepared by filtering seawater through a 0.2 μm pore size filter (Sartorius) followed by autoclaving. The cells were centrifuged and resuspended once more in SSW. The concentration of resuspended cells was adjusted to A600=1.0 using a spectrophotometer (Beckman DU530, USA).
Flat bottom 96 well polystyrene (hydrophobic, Falcon 351172) (=NTC) and tissue-culture treated polystyrene (hydrophilic, Falcon 353072) (=TC) microplates were used in the analyses. Each test was performed in triplicate. Two sets of experiments were conducted. […] For the control and blank wells, 25 ul of SDI were added. For wells containing pharmaceuticals, 25 ul of the respective pharmaceutical at a concentration of 100 ug ml−1 were added. This was immediately followed by the addition of 75 ul of bacterial suspension. To blanks were added 75 ul of SSW.
The bacterial cells in suspension were allowed to attach for 2 h at 28° C. Unattached cells were removed by aspiration using a plate washer (Tecan, Austria) and wells were rinsed three times with 200 ul of SSW each time. The attached cells were stained with 200 ul of crystal violet solution (0.1% w/v in deionized water) in each well for 5 min. After removing the stain using the plate washer, the wells were rinsed twice with 300 ul of SDI each time. Sodium desoxycholate (200 ul) solution (2% w/v in deionized water) was added to each well to extract the crystal violet from the attached stained cells for 10 min. The absorbance of the crystal violet was read at 590 nm using a microplate reader (Sunrise, Tecan, Austria).
Results of the adhesion assay were obtained by the difference in absorbance readings between wells containing bacterial cells and the mean of absorbance of those containing the SSW only. The effect of the pharmaceuticals on bacterial adhesion was determined by the examining the differences in absorbance between the wells containing the pharmaceuticals+bacteria and the bacteria. The significance was compared using T-test.

In assay [2] the test system is hard fouling (barnacles, serpulids, spirorbids). As to the kind of experiment: Field testing of coated rods. On the set-up: Total hard fouling, difference in mean cover (%), drug vs control / Barnacles, difference in mean cover (%), drug vs control: tested at 25 µg/ml of coating; Serpulids, difference in mean cover (%), drug vs control: tested at 25 µg/ml of coating mix. The note with it: for Overall performance in field assay: crude rank, best (1) to worst (8); for Barnacles, difference in mean cover (%), drug vs VC50 / Serpulids, difference in mean cover (%), drug vs VC50 / Spirorbids, difference in mean cover (%), drug vs VC50 / Total hard fouling, difference in mean cover (%), drug vs VC50: drug + VC50 rods vs VC50 control; for Barnacles, difference in mean cover (%), drug vs control / Serpulids, difference in mean cover (%), drug vs control / Spirorbids, difference in mean cover (%), drug vs control / Total hard fouling, difference in mean cover (%), drug vs control: drug + VC50 rods vs uncoated blank control; for Reduction of total hard fouling cover compared to VC50 alone / Effect of addition of drug on antifouling performance of VC50 coating (total hard fouling): drug at 25 ug per ml of VC50 coating; for Barnacles Mean cover (%) / Serpulids Mean cover (%) / Spirorbids Mean cover (%) / Total hard fouling Mean cover (%): rods coated with drug + VC50, field test; for Total hard fouling Mean cover (%): percentage cover within 6 mm×50 mm transect. The format is in vivo. On the procedure: Fouling on rods occurs more rapidly than on flat panels, enabling rapid assessment of the performance of coatings.
6 mm diameter glass rods were cut to 150 mm length and prepared prior to coating by baking in a furnace at 150° C. for 24 hours and then cooling in a dessicator.
All pharmaceuticals were obtained in commercially available form. All tablets were reduced to fine powder with a mortar and pestle, and capsules were opened to extract the contents. The amount of drug powder required to attain the desired concentrations for all tests was calculated from product dosage information and then measured by weight on a high-resolution electronic balance. This was added to the coating and mixed thoroughly prior to application to obtain the concentration of 25 ug active ingredient per ml of coating mix.
The commercial antifouling product used to benchmark field experiments was VC Offshore with Teflon® manufactured by International Coatings.
For our experiments, a reduced copper coating (“VC50”) was prepared by mixing approximately 20 g of #YBA779 into 100 ml of #YBA707. The prepared coating was then allowed to stand so that bubbles from the mixing process dissipated. 15 ml centrifuge tubes were filled with 10 mls of prepared coating. Prepared glass rods were then immersed in the coating to a height of 100 mm and then suspended on a frame to air dry until coating cured.
Five replicate rods were tested for every experimental treatment, including controls. Two sets of controls were used, an uncoated blank control and a VC50 control without pharmaceutical additives. Rod were randomly arrayed on plastic vexar mesh attached to PVC frames and suspended at a depth of 10 cm from the water surface. […] Rods were examined visually weekly for the duration of testing, which typically lasts between 6 to 10 weeks. All fouling was scored as percentage cover of each category within a 6 mm×50 mm transect on each rod.

Another assay relates to Bugula neritina larvae. As to the kind of experiment: Bioassay against bryozoan larvae. It counts as in vivo. The settings on record: crude rank, best (1) to worst (8). The procedure:
Bugula neritina (Phylum Bryozoa, Class Gymnolaemata, Order Cheilostomatida) is a cosmopolitan species of bryozoan, commonly found in most marine fouling communities. The larvae are brooded in ovicells found on the stem of the colonies. When released, the larva will settle quickly on most surfaces, within a few minutes. At 24° C., the settled larvae forms the one-cell ancestrula, and after 48 hours, the lophophore has developed and extended for feeding.
Adult colonies of Bugula neritina were collected from fouling communities growing on the submerged pontoons on a floating fish farm located off Changi, Singapore. Adult animals were maintained in the open-circulation aquarium at St John's island marine laboratory, Singapore. The adults were kept in total darkness for 24 hours. On exposure to light, larvae were released after half an hour. […] Because the larvae will settle quickly, larvae were pipetted directly into test wells in 1 ml of seawater using a graduated glass pipette.
4 replicates were done for each treatment. After 24 hours, larvae were scored as settled, swimming or dead/deformed. The assay plates were usually kept for another 24 hours and checked again, to ascertain that the settled larvae had developed into viable colonies with lophophores. Two trials were repeated for each compound.
Bioassays were carried out using the method described above, in July 2003 during the peak spawning season for Bugula.

“Also recorded” adds a separate entry of the source. Where a name gives a salt, the structure may show the parent alone.

`CN1CCN(CCCN2c3ccccc3Sc3ccc(Cl)cc32)CC1` [PCZ, prochlorperazine maleate]: in assay [1], the “Effect on formation of bacterial biofilms on NTC and TC plates” value (from here on “Effect on formation”) is “reduced biofilm formation only for strains 4 and 27; also recorded: active against strain 4, and a slight effect on strain 27”; the “Prevention of formation of biofilm” value is listed as 4. In assay [2], the “Overall performance in field assay” value was found to be 7; the “Barnacles, difference in mean cover (%), drug vs VC50” value is recorded as −7.67%; the “Serpulids, difference in mean cover (%), drug vs VC50” value is recorded as −1.67%; the “Spirorbids, difference in mean cover (%), drug vs VC50” value is reported as −6.66%. Besides, in assay [2], the “Total hard fouling, difference in mean cover (%), drug vs VC50” value is −16%; the “Barnacles, difference in mean cover (%), drug vs control” value is recorded as −70.67%; the “Serpulids, difference in mean cover (%), drug vs control” value was −3.33%; the “Spirorbids, difference in mean cover (%), drug vs control” value is recorded as “+15%”. Also, in assay [2], the “Total hard fouling, difference in mean cover (%), drug vs control” value is −58%; the “Reduction of total hard fouling cover compared to VC50 alone” value (from here on “Reduction of total hard fouling cover”) was found to be 16%; the “Barnacles Mean cover (%)” value is recorded as 22.33%; the “Serpulids Mean cover (%)” value is 0%. For the same molecule, in assay [2], the “Spirorbids Mean cover (%)” value is on record as 16.67% and the “Total hard fouling Mean cover (%)” value is 39%. The “Effect of addition of drug on antifouling performance of VC50 coating (total hard fouling)” value (“Effect of addition of drug” below) in assay [2] (in words) is on record as “this reduction was not statistically significant”. The “Prevention of settlement of Bugula larvae” value in the assay with Bugula neritina larvae was found to be 2.

As for `CNCCC(Oc1ccc(C(F)(F)F)cc1)c1ccccc1` (centres unmarked) [PZC, fluoxetine hydrochloride], the “Effect on formation” value in assay [1] (hydrochloride) is “slight effect on biofilm formation in strain 4 on both TC and NTC plates; also recorded: slight effect on strain 4 (p<0.1)”. Moreover, the “Prevention of formation of biofilm” value in assay [1] amounted to 5. For the same molecule, in assay [2], the “Overall performance in field assay” value came to 6; the “Barnacles, difference in mean cover (%), drug vs VC50” value is −14%; the “Serpulids, difference in mean cover (%), drug vs VC50” value was −1.67%; the “Spirorbids, difference in mean cover (%), drug vs VC50” value is −7.67%. Moreover, in assay [2], the “Total hard fouling, difference in mean cover (%), drug vs VC50” value is −23.37%; the “Barnacles, difference in mean cover (%), drug vs control” value is −78.34%; the “Serpulids, difference in mean cover (%), drug vs control” value is recorded as −6.67%; the “Spirorbids, difference in mean cover (%), drug vs control” value is “+3.33%”. For the same molecule, in assay [2], the “Total hard fouling, difference in mean cover (%), drug vs control” value is on record as −81.67%; the “Reduction of total hard fouling cover” value is recorded as roughly 24%; the “Barnacles Mean cover (%)” value is 9.33%; the “Serpulids Mean cover (%)” value was found to be 0%. Further, in assay [2], the “Spirorbids Mean cover (%)” value amounted to 9% and the “Total hard fouling Mean cover (%)” value came out at 18.33%. For the same molecule, in assay [2] (in words), the “Effect of addition of drug” value is “did not significantly improve antifouling performance”. In the assay on Bugula neritina larvae, the “Prevention of settlement of Bugula larvae” value turned out to be 3.

On to `CN[C@H]1CC[C@@H](c2ccc(Cl)c(Cl)c2)c2ccccc21.Cl` [ZLT, sertraline hydrochloride], for which, in assay [1] (hydrochloride), the “Effect on formation” value is “Biofilm formation was reduced for most strains except strain 14; also recorded: reduction of biofilm growth for most strains (except strain 14) on NTC, but only for strain 28 on TC”. In addition, the “Prevention of formation of biofilm” value in assay [1] came to 3. Besides, in assay [2] (coated rods, in words), the “Performance against serpulid polychaetes” value was “higher cover of serpulid and spirorbid polychaetes compared to VC50 alone”; the “Performance against spirorbid polychaetes” value was “higher cover of serpulid and spirorbid polychaetes compared to VC50 alone”. For the same molecule, in assay [2], the “Overall performance in field assay” value came to 8; the “Barnacles, difference in mean cover (%), drug vs VC50” value is reported as −11.67%; the “Serpulids, difference in mean cover (%), drug vs VC50” value is recorded as “+1.66%”; the “Spirorbids, difference in mean cover (%), drug vs VC50” value is listed as “+6.67%”. In assay [2], the “Total hard fouling, difference in mean cover (%), drug vs VC50” value is −3.33%; the “Barnacles, difference in mean cover (%), drug vs control” value is recorded as −74.67%; the “Serpulids, difference in mean cover (%), drug vs control” value came out at 0%; the “Spirorbids, difference in mean cover (%), drug vs control” value is on record as “+28.33%”. Also, in assay [2], the “Total hard fouling, difference in mean cover (%), drug vs control” value was −46.33%; the “Reduction of total hard fouling cover” value is on record as 3.3%; the “Barnacles Mean cover (%)” value came out at 18.33%; the “Serpulids Mean cover (%)” value amounted to 3.33%. In addition, in assay [2], the “Spirorbids Mean cover (%)” value is on record as 30% and the “Total hard fouling Mean cover (%)” value came out at 51.67%. Further, the “Effect of addition of drug” value in assay [2] (in words) was “did not significantly improve the antifouling performance of VC50”. Moreover, the “Prevention of settlement of Bugula larvae” value in the assay with Bugula neritina larvae is recorded as 1.
